Measurements as given in patent publication US12037355B2, “Triterpene saponin analogues” (priority 2015, dated 2024).

Legend:
[1] = system: hemolysis; assay: Hemolytic assay; assay type: cell-based
Protocol: (§1) Natural and synthetic QS-21 (SQS-21 or SAPONEX®) and a variety of analogs were tested for hemolytic activity.

[2] = Companion toxicity study, body mass three days after immunization
Protocol: as §1

[3] = Pilot pharmacology/toxicology study with Adacel, QS-21 and TiterQuil-1055; conditions: for changes in blood chemistry or hematology results: SC days 1 and 15, bled day 22 (group 7 day 29); for weight loss (body weight): mice, 50 mcg TiterQuil-1055, 20 mcg QS-21; for liver histopathology (hepatocellular cytoplasmic vacuolization): sacrificed day 22, 33 tissues examined
[4] = system: pertussis toxin; assay: Adacel (Tdap vaccine) immunogenicity in mice, anti-PT antibody in serum; assay type: in vivo; conditions: for Antibody levels augmented compared to immunization with Adacel alone: adjuvant with Adacel
[5] = Weight loss in Engerix-B / TiterQuil-1055 study; conditions: mice
[6] = Stability at 37° C.; assay type: physicochemical; conditions: for degradation: after two weeks at 37° C.
Protocol: as §1

[7] = cited from earlier work
[8] = groups of 5 mice, 50 mcg TiterQuil-1055, 20 mcg QS-21, Adacel 2.5 mcg pertussis toxin
[9] = 50 mcg TiterQuil-1055, 20 mcg QS-21, Adacel 2.5 mcg pertussis toxin
[10] = groups of 5 mice, 2 weeks after second SC immunization

Row | Compound | hemolytic activity [1] | body mass gained on average ([2]; young mice) [%] | changes in blood chemistry or hematology results [3, 8] | weight loss ([3]; groups of 5 mice, SC days 1 and 15, weighed daily, 50 mcg TiterQuil-1055, 20 mcg QS-21, Adacel 2.5 mcg pertussis toxin) | weight loss (body weight) [3] | liver histopathology (hepatocellular cytoplasmic vacuolization) [3, 9] | Antibody levels ([4]; 0.5 mcg dose of Adacel, alone or with TiterQuil-1055, groups of 5 mice, 2 weeks after second SC immunization) | Antibody levels 2 weeks later ([4]; TiterQuil-1055 with Adacel, 2 weeks after the 2-week post-second-immunization bleed) | Antibody levels augmented compared to immunization with Adacel alone [4, 10] [fold] | weight loss ([5]; 30 mcg TiterQuil-1055 dose) | weight loss ([5]; 100 mcg TiterQuil-1055 dose) [%] | weight loss ([5]; 300 mcg TiterQuil-1055 dose) [%] | stability relative to QS-21 [6] | degradation [6] | body mass lost on average ([2]; 20 mcg QS-21) | tolerated (maximum) dose in cancer patients ([7]; cancer patients, above this dose local and systemic side effects) [µg] | maximum dose for healthy patients ([7]; healthy patients) [µg] | highest practical tolerable dose ([7]; well (non-cancer) adult and child recipients) [µg]
1 | CC1O[C@@H](OC2C(O)[C@@H](NC(=O)CCCCCCCCCCC(=O)O)C(CO)O[C@H]2OC(=O)[C@]23CCC(C)(C)CC2C2=CCC4C5(C)CC[C@H](O)C(C)(C=O)C5CC[C@]4(C)C2(C)CC3O)C(O)C(O)[C@H]1O[C@@H]1OC[C@@H](O)C(O)C1O (stereo partly drawn) [Compound I-4] | much lower or undetectable hemolytic activity | 5 | No changes | no other mice | No weight loss | No changes at all | 52,344 | further increased | 70 | No weight loss | 4 | 5 | increased stability | without detectable degradation | – | – | – | –
2 | QS-21 [reference compound] | highly hemolytically active | – | No changes | – | 8-9% | Mild vacuolar changes | – | – | 10 | – | – | – | – | 20% | 8-10% | 100 to 150 | ~50 | 25 to 50
